# Measured values taken from patent US20260232767A1, “INTERLEUKIN-23 RECEPTOR ANTAGONIST PEPTIDES FOR USE IN THE TREATMENT OF PSORIASIS” (Janssen Pharmaceutica NV, priority 2023, published 2026).
# Test system: subjects with moderate-to-severe plaque psoriasis
# Assay: PASI response, Example 2 long-term extension to Week 52
# Assay type: in vivo, human
# Details: for Change from Baseline in PASI Total Score, LSMean: MMRM model; for Subjects achieving 100% Improvement at Week 52 (PASI) / Subjects achieving ≥75% Improvement at Week 52 (PASI 75 Response) / Subjects achieving ≥90% Improvement at Week 52 (PASI): non-responder imputation
# From the text: Described below is a multicenter, long-term extension (LTE), double-blind, dose-ranging, parallel group interventional study in participants from Example 1 to evaluate the long-term efficacy and safety of the hydrochloride salt of the compound of Formula (I) for the treatment of moderate-to-severe plaque psoriasis. Patients from Example 1 continued to receive the same dose of the compound of Formula (I) for an additional 36-week treatment period with a 4-week safety follow up period after the last administration of the compound of Formula (I). Patients randomized to placebo in Example 1 received the compound of Formula (I) at a dose of 100 mg QD starting at Week 16 of Example 1 (FIG. 21).
# The primary efficacy endpoint is the proportion of participants achieving a PASI 75 response at Week 52, defined as at least a […] reduction from baseline PASI of Example 1. For primary analysis, composite strategy (non-responder imputation) was applied to address intercurrent event #1 (Discontinuation of study intervention due to lack of efficacy or due to an AE of worsening of psoriasis) and […] (initiation of a protocol-prohibited medication or therapy that could improve psoriasis); treatment policy strategy (observed data) was applied to intercurrent event #3 (Discontinuation of study intervention due to other reasons). Participants with missing data after application of ICEs are considered as non-responders.
# Since there was no control arm (after week 16), in this primary analysis, only the proportion of participants who achieved a PASI75 response and its […] confidence interval at Week 52 were summarized for each intervention group.
structure (smiles),measurement,setting,value
"CC(=O)NCCCC[C@@H]1NC(=O)[C@H](Cc2c[nH]c3c(C)cccc23)NC(=O)[C@H]([C@@H](C)O)NC(=O)[C@H](CC(N)=O)NC(=O)[C@@H](NC(C)=O)C(C)(C)SSC(C)(C)[C@@H](C(=O)N[C@@H](Cc2ccc(OCCN)cc2)C(=O)N[C@@H](Cc2ccc3ccccc3c2)C(=O)NC2(C(=O)N[C@@H](CCC(=O)O)C(=O)N[C@@H](CC(N)=O)C(=O)N[C@@H](Cc3cccnc3)C(=O)N(C)CC(N)=O)CCOCC2)NC1=O [IL-23 receptor antagonist peptide, Ac-[Pen]*-N-T-[W(7-Me)]-[Lys(Ac)]-[Pen]*-Phe[4-(2-aminoethoxy)]-[2-Nal]-[THP]-E-N-[3-Pal]-Sarc-NH2 (*[Pen]-[Pen]* formdisulfidebond)]","Change from Baseline in PASI Total Score, Mean","25 mg BID, Week 1",−1.20
same,"Change from Baseline in PASI Total Score, Median","25 mg BID, Week 1",−0.80
same,"Change from Baseline in PASI Total Score, LSMean","25 mg BID, Week 1",−1.4
same,"Change from Baseline in PASI Total Score, Mean","25 mg BID, Week 2",−3.65
same,"Change from Baseline in PASI Total Score, Median","25 mg BID, Week 2",−3.20
same,"Change from Baseline in PASI Total Score, LSMean","25 mg BID, Week 2",−3.8
same,"Change from Baseline in PASI Total Score, Mean","25 mg BID, Week 4",−6.26
same,"Change from Baseline in PASI Total Score, Median","25 mg BID, Week 4",−6.30
same,"Change from Baseline in PASI Total Score, LSMean","25 mg BID, Week 4",−6.7
same,"Change from Baseline in PASI Total Score, Mean","25 mg BID, Week 8",−9.72
same,"Change from Baseline in PASI Total Score, Median","25 mg BID, Week 8",−9.90
same,"Change from Baseline in PASI Total Score, LSMean","25 mg BID, Week 8",−10.2
same,"Change from Baseline in PASI Total Score, Mean","25 mg BID, Week 12",−11.46
same,"Change from Baseline in PASI Total Score, Median","25 mg BID, Week 12",−12.30
same,"Change from Baseline in PASI Total Score, LSMean","25 mg BID, Week 12",−11.9
same,"Change from Baseline in PASI Total Score, Mean","25 mg BID, Week 16",−12.73
same,"Change from Baseline in PASI Total Score, Median","25 mg BID, Week 16",−12.70
same,"Change from Baseline in PASI Total Score, LSMean","25 mg BID, Week 16",−13.0
same,"Change from Baseline in PASI Total Score, Mean","25 mg BID, Week 20",−13.50
same,"Change from Baseline in PASI Total Score, Median","25 mg BID, Week 20",−13.60
same,"Change from Baseline in PASI Total Score, LSMean","25 mg BID, Week 20",−13.7
same,"Change from Baseline in PASI Total Score, Mean","25 mg BID, Week 24",−13.64
same,"Change from Baseline in PASI Total Score, Median","25 mg BID, Week 24",−13.55
same,"Change from Baseline in PASI Total Score, LSMean","25 mg BID, Week 24",−13.5
same,"Change from Baseline in PASI Total Score, Mean","25 mg BID, Week 28",−14.33
same,"Change from Baseline in PASI Total Score, Median","25 mg BID, Week 28",−14.40
same,"Change from Baseline in PASI Total Score, LSMean","25 mg BID, Week 28",−14.5
same,"Change from Baseline in PASI Total Score, Mean","25 mg BID, Week 32",−14.36
same,"Change from Baseline in PASI Total Score, Median","25 mg BID, Week 32",−14.30
same,"Change from Baseline in PASI Total Score, LSMean","25 mg BID, Week 32",−14.6
same,"Change from Baseline in PASI Total Score, Mean","25 mg BID, Week 40",−13.58
same,"Change from Baseline in PASI Total Score, Median","25 mg BID, Week 40",−14.10
same,"Change from Baseline in PASI Total Score, LSMean","25 mg BID, Week 40",−13.9
same,"Change from Baseline in PASI Total Score, Mean","25 mg BID, Week 52",−13.24
same,"Change from Baseline in PASI Total Score, Median","25 mg BID, Week 52",−13.75
same,Subjects achieving PASI 75,"25 mg BID, Week 52",24 (28.5%)
same,"Change from Baseline in PASI Total Score, LSMean","25 mg BID, Week 52",−13.6
same,Subjects achieving 100% Improvement at Week 52 (PASI),"25 mg BID, Week 52",(17.1%)
same,Subjects achieving ≥75% Improvement at Week 52 (PASI 75 Response),"25 mg BID, Week 52",24 (58.5%)
same,Subjects achieving ≥90% Improvement at Week 52 (PASI),"25 mg BID, Week 52",(36.6%)
same,"Change from Baseline in PASI Total Score, Mean","25 mg QD, Week 1",−2.25
same,"Change from Baseline in PASI Total Score, Median","25 mg QD, Week 1",−0.80
same,"Change from Baseline in PASI Total Score, LSMean","25 mg QD, Week 1",−2.4
same,"Change from Baseline in PASI Total Score, Mean","25 mg QD, Week 2",−4.50
same,"Change from Baseline in PASI Total Score, Median","25 mg QD, Week 2",−4.00
same,"Change from Baseline in PASI Total Score, LSMean","25 mg QD, Week 2",−4.5
same,"Change from Baseline in PASI Total Score, Mean","25 mg QD, Week 4",−6.50
same,"Change from Baseline in PASI Total Score, Median","25 mg QD, Week 4",−5.60
same,"Change from Baseline in PASI Total Score, LSMean","25 mg QD, Week 4",−6.7
same,"Change from Baseline in PASI Total Score, Mean","25 mg QD, Week 8",−9.39
same,"Change from Baseline in PASI Total Score, Median","25 mg QD, Week 8",−7.70
same,"Change from Baseline in PASI Total Score, LSMean","25 mg QD, Week 8",−9.5
same,"Change from Baseline in PASI Total Score, Mean","25 mg QD, Week 12",−10.71
same,"Change from Baseline in PASI Total Score, Median","25 mg QD, Week 12",−9.20
same,"Change from Baseline in PASI Total Score, LSMean","25 mg QD, Week 12",−10.8
same,"Change from Baseline in PASI Total Score, Mean","25 mg QD, Week 16",−12.76
same,"Change from Baseline in PASI Total Score, Median","25 mg QD, Week 16",−12.20
same,"Change from Baseline in PASI Total Score, LSMean","25 mg QD, Week 16",−12.0
same,"Change from Baseline in PASI Total Score, Mean","25 mg QD, Week 20",−14.01
same,"Change from Baseline in PASI Total Score, Median","25 mg QD, Week 20",−13.70
same,"Change from Baseline in PASI Total Score, LSMean","25 mg QD, Week 20",−13.2
same,"Change from Baseline in PASI Total Score, Mean","25 mg QD, Week 24",−13.56
same,"Change from Baseline in PASI Total Score, Median","25 mg QD, Week 24",−14.30
same,"Change from Baseline in PASI Total Score, LSMean","25 mg QD, Week 24",−12.8
same,"Change from Baseline in PASI Total Score, Mean","25 mg QD, Week 28",−13.35
same,"Change from Baseline in PASI Total Score, Median","25 mg QD, Week 28",−14.60
same,"Change from Baseline in PASI Total Score, LSMean","25 mg QD, Week 28",−13.3
same,"Change from Baseline in PASI Total Score, Mean","25 mg QD, Week 32",−14.06
same,"Change from Baseline in PASI Total Score, Median","25 mg QD, Week 32",−15.50
same,"Change from Baseline in PASI Total Score, LSMean","25 mg QD, Week 32",−13.6
same,"Change from Baseline in PASI Total Score, Mean","25 mg QD, Week 40",−13.70
same,"Change from Baseline in PASI Total Score, Median","25 mg QD, Week 40",−15.25
same,"Change from Baseline in PASI Total Score, LSMean","25 mg QD, Week 40",−13.1
same,"Change from Baseline in PASI Total Score, Mean","25 mg QD, Week 52",−13.55
same,"Change from Baseline in PASI Total Score, Median","25 mg QD, Week 52",−14.55
same,Subjects achieving PASI 75,"25 mg QD, Week 52",21 (48.8%)
same,"Change from Baseline in PASI Total Score, LSMean","25 mg QD, Week 52",−12.9
same,Subjects achieving 100% Improvement at Week 52 (PASI),"25 mg QD, Week 52",(14.0%)
same,Subjects achieving ≥75% Improvement at Week 52 (PASI 75 Response),"25 mg QD, Week 52",21 (48.8%)
same,Subjects achieving ≥90% Improvement at Week 52 (PASI),"25 mg QD, Week 52",(27.9%)
same,"Change from Baseline in PASI Total Score, Mean","50 mg QD, Week 1",−3.10
same,"Change from Baseline in PASI Total Score, Median","50 mg QD, Week 1",−1.80
same,"Change from Baseline in PASI Total Score, LSMean","50 mg QD, Week 1",−3.1
same,"Change from Baseline in PASI Total Score, Mean","50 mg QD, Week 2",−5.74
same,"Change from Baseline in PASI Total Score, Median","50 mg QD, Week 2",−4.30
same,"Change from Baseline in PASI Total Score, LSMean","50 mg QD, Week 2",−5.7
same,"Change from Baseline in PASI Total Score, Mean","50 mg QD, Week 4",−8.25
same,"Change from Baseline in PASI Total Score, Median","50 mg QD, Week 4",−7.85
same,"Change from Baseline in PASI Total Score, LSMean","50 mg QD, Week 4",−8.2
same,"Change from Baseline in PASI Total Score, Mean","50 mg QD, Week 8",−11.41
same,"Change from Baseline in PASI Total Score, Median","50 mg QD, Week 8",−11.85
same,"Change from Baseline in PASI Total Score, LSMean","50 mg QD, Week 8",−11.3
same,"Change from Baseline in PASI Total Score, Mean","50 mg QD, Week 12",−12.96
same,"Change from Baseline in PASI Total Score, Median","50 mg QD, Week 12",−14.25
same,"Change from Baseline in PASI Total Score, LSMean","50 mg QD, Week 12",−12.8
same,"Change from Baseline in PASI Total Score, Mean","50 mg QD, Week 16",−14.56
